# Measured values taken from ChEMBL document CHEMBL1128761, “Benzothiazolylthio carbapenems: potent anti-MRSA agents” (Bioorg Med Chem Lett, 1995).
# Target: T1, Dipeptidase 1 (Sus scrofa) (UniProt P22412)
# T1 sequence (whole entry): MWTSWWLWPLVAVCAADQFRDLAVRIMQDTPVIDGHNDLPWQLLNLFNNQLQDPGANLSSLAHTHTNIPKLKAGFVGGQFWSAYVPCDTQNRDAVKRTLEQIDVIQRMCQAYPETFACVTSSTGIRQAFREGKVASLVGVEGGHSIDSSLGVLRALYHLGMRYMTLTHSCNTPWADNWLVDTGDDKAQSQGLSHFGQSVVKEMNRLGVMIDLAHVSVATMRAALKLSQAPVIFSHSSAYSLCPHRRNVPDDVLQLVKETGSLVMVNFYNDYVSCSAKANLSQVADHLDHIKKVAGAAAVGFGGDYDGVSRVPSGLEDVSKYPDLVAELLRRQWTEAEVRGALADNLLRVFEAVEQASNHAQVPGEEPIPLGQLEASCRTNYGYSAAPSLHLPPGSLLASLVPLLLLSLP
# Test: Susceptibility to DHP-I (swine kidney enzyme)
# Format: tissue-based
# Details: not given
row,Compound,Susceptibility
1,C[C@@H](O)[C@H]1C(=O)N2C(C(=O)[O-])=C(Sc3ncc4ccccc4n3)[C@H](C)[C@H]12.[Na+],0.3
2,C[C@@H](O)[C@H]1C(=O)N2C(C(=O)[O-])=C(Sc3nc4cc(Cl)ccc4s3)[C@H](C)[C@H]12.[Na+],0.2
3,C[C@@H](O)[C@H]1C(=O)N2C(C(=O)[O-])=C(Sc3nc4ccccc4s3)C[C@H]12.[Na+],1.7
4,C[C@@H](O)[C@H]1C(=O)N2C(C(=O)[O-])=C(Sc3nc4cc(CO)ccc4s3)[C@H](C)[C@H]12.[Na+],0.3
5,COC(=O)c1csc2sc(SC3=C(C(=O)[O-])N4C(=O)[C@H]([C@@H](C)O)[C@H]4[C@H]3C)nc12.[Na+],0.3
6,C[C@@H](O)[C@H]1C(=O)N2C(C(=O)[O-])=C(Sc3nc4ccccc4s3)[C@H](C)[C@H]12.[Na+],0.2
7,C[C@@H](O)[C@H]1C(=O)N2C(C(=O)[O-])=C(Sc3ncc(-c4ccccc4)s3)[C@H](C)[C@H]12.[Na+],0.5

# Test system: Enterococcus
# Test: Inhibitory activity against enterococcus evaluated by computational method
# Format: functional
# Details: not given
row,Compound,MIC
1,C[C@@H](O)[C@H]1C(=O)N2C(C(=O)[O-])=C(Sc3ncc4ccccc4n3)[C@H](C)[C@H]12.[Na+],8 µg/mL
2,C[C@@H](O)[C@H]1C(=O)N2C(C(=O)[O-])=C(Sc3nc4cc(Cl)ccc4s3)[C@H](C)[C@H]12.[Na+],2.7 µg/mL
3,C[C@@H](O)[C@H]1C(=O)N2C(C(=O)[O-])=C(Sc3nc4ccccc4s3)C[C@H]12.[Na+],1.7 µg/mL
4,C[C@@H](O)[C@H]1C(=O)N2C(C(=O)[O-])=C(Sc3nc4cc(CO)ccc4s3)[C@H](C)[C@H]12.[Na+],3.8 µg/mL
5,COC(=O)c1csc2sc(SC3=C(C(=O)[O-])N4C(=O)[C@H]([C@@H](C)O)[C@H]4[C@H]3C)nc12.[Na+],4 µg/mL
6,C[C@@H](O)[C@H]1C(=O)N2C(C(=O)[O-])=C(Sc3nc4ccccc4s3)[C@H](C)[C@H]12.[Na+],2.1 µg/mL
7,C[C@@H](O)[C@H]1C(=O)N2C(C(=O)[O-])=C(Sc3ncc(-c4ccccc4)s3)[C@H](C)[C@H]12.[Na+],8 µg/mL

# Test system: Enterococcus
# Test: Inhibitory activity against enterococcus evaluated manually
# Format: functional
# Details: not given
row,Compound,MIC
1,C[C@@H](O)[C@H]1C(=O)N2C(C(=O)[O-])=C(Sc3nc4ccccc4s3)[C@H](C)[C@H]12.[Na+],4 µg/mL

# Test system: Bacteria
# Test: The gram-negative activity is derived from eleven strains selected from seven enteric genera
# Format: functional
# Details: not given
row,Compound,MIC
1,C[C@@H](O)[C@H]1C(=O)N2C(C(=O)[O-])=C(Sc3nc4ccccc4s3)[C@H](C)[C@H]12.[Na+],9.7 µg/mL

# Same assay, conditions: Bacteria; read-out: MIC
row,Compound,MIC
1,C[C@@H](O)[C@H]1C(=O)N2C(C(=O)[O-])=C(Sc3ncc4ccccc4n3)[C@H](C)[C@H]12.[Na+],15 µg/mL
2,C[C@@H](O)[C@H]1C(=O)N2C(C(=O)[O-])=C(Sc3nc4cc(Cl)ccc4s3)[C@H](C)[C@H]12.[Na+],4.8 µg/mL
3,C[C@@H](O)[C@H]1C(=O)N2C(C(=O)[O-])=C(Sc3nc4ccccc4s3)C[C@H]12.[Na+],3.7 µg/mL
4,C[C@@H](O)[C@H]1C(=O)N2C(C(=O)[O-])=C(Sc3nc4cc(CO)ccc4s3)[C@H](C)[C@H]12.[Na+],8 µg/mL
5,COC(=O)c1csc2sc(SC3=C(C(=O)[O-])N4C(=O)[C@H]([C@@H](C)O)[C@H]4[C@H]3C)nc12.[Na+],21.9 µg/mL
6,C[C@@H](O)[C@H]1C(=O)N2C(C(=O)[O-])=C(Sc3nc4ccccc4s3)[C@H](C)[C@H]12.[Na+],5.6 µg/mL
7,C[C@@H](O)[C@H]1C(=O)N2C(C(=O)[O-])=C(Sc3ncc(-c4ccccc4)s3)[C@H](C)[C@H]12.[Na+],16 µg/mL

# Target: T2, MecA (Staphylococcus aureus, UniProt Q7DHH4)
# T2 sequence (Q7DHH4 whole entry): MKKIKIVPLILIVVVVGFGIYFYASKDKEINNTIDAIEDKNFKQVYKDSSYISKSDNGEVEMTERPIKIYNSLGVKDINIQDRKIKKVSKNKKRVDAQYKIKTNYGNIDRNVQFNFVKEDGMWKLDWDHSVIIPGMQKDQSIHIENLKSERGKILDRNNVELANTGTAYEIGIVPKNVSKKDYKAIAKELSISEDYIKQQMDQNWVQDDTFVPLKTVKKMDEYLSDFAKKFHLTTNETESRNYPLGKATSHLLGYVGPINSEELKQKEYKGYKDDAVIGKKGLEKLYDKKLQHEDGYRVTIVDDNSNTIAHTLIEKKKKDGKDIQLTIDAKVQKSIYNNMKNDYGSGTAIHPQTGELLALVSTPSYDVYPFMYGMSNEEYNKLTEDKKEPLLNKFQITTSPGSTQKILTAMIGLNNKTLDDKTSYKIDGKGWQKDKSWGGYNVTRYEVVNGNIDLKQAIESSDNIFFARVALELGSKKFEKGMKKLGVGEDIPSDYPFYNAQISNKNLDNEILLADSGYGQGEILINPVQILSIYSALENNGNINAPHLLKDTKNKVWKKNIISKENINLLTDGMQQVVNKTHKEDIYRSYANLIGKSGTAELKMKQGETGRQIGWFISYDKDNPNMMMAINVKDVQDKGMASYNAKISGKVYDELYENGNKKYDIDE
# Test: Binding affinity towards Penicillin-binding protein 2a from homogeneous MRSA COL strain using [3H]-radioligand
# Details: not given
row,Compound,IC50
1,C[C@@H](O)[C@H]1C(=O)N2C(C(=O)[O-])=C(Sc3ncc4ccccc4n3)[C@H](C)[C@H]12.[Na+],30.2 µM
2,C[C@@H](O)[C@H]1C(=O)N2C(C(=O)[O-])=C(Sc3nc4cc(Cl)ccc4s3)[C@H](C)[C@H]12.[Na+],6.24 µM
3,C[C@@H](O)[C@H]1C(=O)N2C(C(=O)[O-])=C(Sc3nc4ccccc4s3)C[C@H]12.[Na+],8.06 µM
4,C[C@@H](O)[C@H]1C(=O)N2C(C(=O)[O-])=C(Sc3nc4cc(CO)ccc4s3)[C@H](C)[C@H]12.[Na+],2.8 µM
5,COC(=O)c1csc2sc(SC3=C(C(=O)[O-])N4C(=O)[C@H]([C@@H](C)O)[C@H]4[C@H]3C)nc12.[Na+],2.59 µM
6,C[C@@H](O)[C@H]1C(=O)N2C(C(=O)[O-])=C(Sc3nc4ccccc4s3)[C@H](C)[C@H]12.[Na+],5.02 µM
7,C[C@@H](O)[C@H]1C(=O)N2C(C(=O)[O-])=C(Sc3ncc(-c4ccccc4)s3)[C@H](C)[C@H]12.[Na+],236 µM

# Test system: Staphylococcus
# Test: Inhibitory activity against methicillin-resistant coagulase negative staphylococci (MRCNS)evaluated by computational method
# Format: functional
# Details: not given
row,Compound,MIC
1,C[C@@H](O)[C@H]1C(=O)N2C(C(=O)[O-])=C(Sc3nc4ccccc4s3)[C@H](C)[C@H]12.[Na+],1.6 µg/mL

# Test system: Staphylococcus
# Test: Inhibitory activity against methicillin-resistant coagulase negative staphylococci (MRCNS)evaluated manually
# Format: functional
# Details: not given
row,Compound,MIC
1,C[C@@H](O)[C@H]1C(=O)N2C(C(=O)[O-])=C(Sc3nc4ccccc4s3)[C@H](C)[C@H]12.[Na+],4 µg/mL

# Test system: Staphylococcus aureus
# Test: Inhibitory activity against methicillin-resistant staphylococcus aureus(MRSA)evaluated manually
# Format: functional
# Details: not given
row,Compound,MIC
1,C[C@@H](O)[C@H]1C(=O)N2C(C(=O)[O-])=C(Sc3nc4ccccc4s3)[C@H](C)[C@H]12.[Na+],1 µg/mL

# Test system: Staphylococcus aureus
# Test: Inhibitory activity against methicillin-sensitive staphylococcus aureus(MSSA)
# Format: functional
# Details: not given
row,Compound,MIC
1,C[C@@H](O)[C@H]1C(=O)N2C(C(=O)[O-])=C(Sc3ncc4ccccc4n3)[C@H](C)[C@H]12.[Na+],0.02 µg/mL
2,C[C@@H](O)[C@H]1C(=O)N2C(C(=O)[O-])=C(Sc3nc4cc(Cl)ccc4s3)[C@H](C)[C@H]12.[Na+],0.02 µg/mL
3,C[C@@H](O)[C@H]1C(=O)N2C(C(=O)[O-])=C(Sc3nc4ccccc4s3)C[C@H]12.[Na+],0.07 µg/mL
4,C[C@@H](O)[C@H]1C(=O)N2C(C(=O)[O-])=C(Sc3nc4cc(CO)ccc4s3)[C@H](C)[C@H]12.[Na+],0.07 µg/mL
5,COC(=O)c1csc2sc(SC3=C(C(=O)[O-])N4C(=O)[C@H]([C@@H](C)O)[C@H]4[C@H]3C)nc12.[Na+],0.04 µg/mL
6,C[C@@H](O)[C@H]1C(=O)N2C(C(=O)[O-])=C(Sc3ncc(-c4ccccc4)s3)[C@H](C)[C@H]12.[Na+],0.03 µg/mL

# Test system: Staphylococcus aureus
# Test: Inhibitory activity against methicillin-sensitive staphylococcus aureus(MSSA) evaluated by computational method
# Format: functional
# Details: not given
row,Compound,MIC
1,C[C@@H](O)[C@H]1C(=O)N2C(C(=O)[O-])=C(Sc3nc4ccccc4s3)[C@H](C)[C@H]12.[Na+],0.06 µg/mL

# Test system: Staphylococcus aureus
# Test: Inhibitory activity against methicillin-sensitive staphylococcus aureus(MSSA) evaluated manually
# Format: functional
# Details: not given
row,Compound,MIC
1,C[C@@H](O)[C@H]1C(=O)N2C(C(=O)[O-])=C(Sc3nc4ccccc4s3)[C@H](C)[C@H]12.[Na+],0.02 µg/mL

# Test system: Staphylococcus aureus
# Test: Inhibitory activity against methicillin-resistant staphylococcus aureus(MRSA)
# Format: functional
# Details: not given
row,Compound,MIC
1,C[C@@H](O)[C@H]1C(=O)N2C(C(=O)[O-])=C(Sc3ncc4ccccc4n3)[C@H](C)[C@H]12.[Na+],4 µg/mL
2,C[C@@H](O)[C@H]1C(=O)N2C(C(=O)[O-])=C(Sc3nc4cc(Cl)ccc4s3)[C@H](C)[C@H]12.[Na+],0.8 µg/mL
3,C[C@@H](O)[C@H]1C(=O)N2C(C(=O)[O-])=C(Sc3nc4ccccc4s3)C[C@H]12.[Na+],1.9 µg/mL
4,C[C@@H](O)[C@H]1C(=O)N2C(C(=O)[O-])=C(Sc3nc4cc(CO)ccc4s3)[C@H](C)[C@H]12.[Na+],1 µg/mL
5,COC(=O)c1csc2sc(SC3=C(C(=O)[O-])N4C(=O)[C@H]([C@@H](C)O)[C@H]4[C@H]3C)nc12.[Na+],2 µg/mL
6,C[C@@H](O)[C@H]1C(=O)N2C(C(=O)[O-])=C(Sc3ncc(-c4ccccc4)s3)[C@H](C)[C@H]12.[Na+],32 µg/mL

# Test system: Staphylococcus aureus
# Test: Inhibitory activity against methicillin-resistant staphylococcus aureus(MRSA)evaluated by computational method
# Format: functional
# Details: not given
row,Compound,MIC
1,C[C@@H](O)[C@H]1C(=O)N2C(C(=O)[O-])=C(Sc3nc4ccccc4s3)[C@H](C)[C@H]12.[Na+],1.7 µg/mL
